Target: T1, human PDE4B1 (Homo sapiens, UniProt Q07343)
T1 construct: host or cells: Sf9 cells
Test: cAMP HTRF assay to determine the activity of hPDE4B1
Format: biochemical
Settings: for inhibition at 1 µM / Inhibition at 1 μM test concentration [%]: Percentage inhibition of PDE4B at 1 μM test concentration; for IC50: dose response measurements with eight concentrations, reported as ranges, read-out: IC50
Protocol: cAMP HTRF® Assay to Determine the Activity of hPDE4B1
The inhibiting effect of the compounds on the enzyme activity of human PDE4B1 was measured by the quantification of 5′-adenosine monophosphate (5′-AMP), which is formed from 3′,5′-cyclic adenosine monophosphate (cAMP). Human recombinant enzyme, expressed in Sf9 cells, and the HTRF (homogeneous time-resolved fluorescence) detection method were used in the assay.
The test compound or water (control) was mixed with the human recombinant PDE4B1 enzyme (4.8 U) in a buffer consisting of 44.4 mM tris-HCl, 5.28 mM MgCl2, 2.64 mM DTT and 0.044% Tween 20 (pH 7.8). After adding the cAMP enzyme substrate (final concentration 40 nM), the mixture was incubated for 30 minutes at room temperature. Then a fluorescence acceptor (Dye2 marked with cAMP), a fluorescence donor (anti-cAMP antibody marked with a europium cryptate) and the non-specific phosphodiesterase inhibitor IBMX (3-isobutyl-1-methylxanthine; final concentration 1 mM) were added. After 60 minutes the fluorescence transfer, which correlates with the amount of remaining cAMP, was measured with a microplate reader (Rubystar, BMG) at λex=337 nm, λem=620 nm and λem=665 nm. The enzyme activity was calculated from the quotient formed from the measured signal at 665 nm and that at 620 nm. The result was expressed as the percentage inhibition of enzyme activity of the control (without PDE4 inhibitor). The enzyme was omitted for measurement of the basal control.
IC50 values (IC50=concentration causing a half-maximal inhibition of control specific activity) were derived from dose response measurements with eight different concentrations (n=2; N=1-2).
Literature: N. Saldou et al., Comparison of recombinant human PDE4 isoforms: interaction with substrate and inhibitors, Cell. Signal. Vol. 10, No. 6, 427-440, 1998

T1 sequence (Q07343 whole entry): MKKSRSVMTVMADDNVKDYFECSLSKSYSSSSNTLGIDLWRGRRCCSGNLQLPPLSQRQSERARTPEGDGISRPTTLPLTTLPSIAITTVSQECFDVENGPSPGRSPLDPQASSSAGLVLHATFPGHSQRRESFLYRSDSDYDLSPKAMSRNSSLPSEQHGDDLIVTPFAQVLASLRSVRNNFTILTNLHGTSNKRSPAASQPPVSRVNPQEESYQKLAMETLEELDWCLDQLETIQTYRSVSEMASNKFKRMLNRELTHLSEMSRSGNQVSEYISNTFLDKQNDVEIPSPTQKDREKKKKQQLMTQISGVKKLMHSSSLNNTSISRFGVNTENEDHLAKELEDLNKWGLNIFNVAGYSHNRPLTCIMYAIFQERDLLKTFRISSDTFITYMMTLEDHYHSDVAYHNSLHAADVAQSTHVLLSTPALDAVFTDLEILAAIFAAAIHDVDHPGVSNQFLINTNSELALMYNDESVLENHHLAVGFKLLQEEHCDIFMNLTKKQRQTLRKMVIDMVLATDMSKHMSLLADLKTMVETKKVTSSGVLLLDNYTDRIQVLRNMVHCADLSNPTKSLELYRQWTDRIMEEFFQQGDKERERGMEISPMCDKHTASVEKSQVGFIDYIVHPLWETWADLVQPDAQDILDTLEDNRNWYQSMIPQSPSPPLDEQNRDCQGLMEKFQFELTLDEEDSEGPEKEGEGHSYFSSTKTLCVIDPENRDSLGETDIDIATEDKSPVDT

Compound	inhibition at 1 µM	IC50	Inhibition at 1 μM test concentration [%]
CN(C)C(=O)COc1ccc2c(c1)N(c1nc(-c3ccc4c(c3)CCO4)nc3c1C[S+]([O-])C3)CC2 (stereo not shown) [2-153, 2-[[1-[2-(2,3-Dihydro-benzofuran-5-yl)-6-oxo-5,7-dihydro-thieno[3,4-d]pyrimidin-4-yl]-2,3-dihydro-1H-indol-6-yl]oxy]-N,N-dimethyl-acetamide]	97%	< 0.1 µM	
CN(C)C(=O)COc1ccc2c(c1)N(c1nc(-c3ccc4occc4c3)nc3c1C[S+]([O-])C3)CC2 (stereo not shown) [2-154, 2-[[1-[2-(Benzofuran-5-yl)-6-oxo-5,7-dihydro-thieno[3,4-d]pyrimidin-4-yl]-2,3-dihydro-1H-indol-6-yl]oxy]-N,N-dimethyl-acetamide]	104%	< 0.1 µM	
CN(C)C(=O)COc1ccc2c(c1)N(c1nc(-c3ccc4sccc4c3)nc3c1C[S+]([O-])C3)CC2 (stereo not shown) [2-155, 2-[[1-[2-(Benzo[b]thiophen-5-yl)-6-oxo-5,7-dihydro-thieno[3,4-d]pyrimidin-4-yl]-2,3-dihydro-1H-indol-6-yl]oxy]-N,N-dimethyl-acetamide]	102%	< 0.1 µM	
COc1ccc(-c2nc3c(c(N4CCc5cc(CC(=O)O)ccc54)n2)C[S+]([O-])C3)cc1Cl (stereo not shown) [Compound No. 1-8, 2-(1-(2-(3-Chloro-4-methoxyphenyl)-6-oxido-5,7-dihydrothieno[3,4-d]pyrimidin-4-yl)indolin-5-yl)acetic acid]	102%	< 0.1 µM	
O=C(O)Cc1ccc2c(c1)CCN2c1nc(-c2ccc(Cl)s2)nc2c1CS(=O)(=O)C2 [Compound No. 1-22, 2-(1-(2-(5-Chlor-thiophen-2-yl)-6,6-dioxo-5,7-dihydro-thieno[3,4-d]pyrimidin-4-yl)-2,3-dihydro-1H-indol-5-yl)acetic acid]			115%
O=C(O)Cc1ccc2c(c1)CCN2c1nc(-c2ccc(F)s2)nc2c1CSC2 [Compound No. 1-23, 2-(1-(2-(5-Fluorothiophen-2-yl)-5,7-dihydrothieno[3,4-d]pyrimidin-4-yl)indolin-5-yl)acetic acid]	93%	< 0.1 µM	
O=C(O)Cc1ccc2c(c1)CCN2c1nc(-c2ccc(F)s2)nc2c1C[S+]([O-])C2 (stereo not shown) [Compound No. 1-24, 2-(1-(2-(5-Fluorothiophen-2-yl)-6-oxido-5,7-dihydrothieno[3,4-d]pyrimidin-4-yl)indolin-5-yl)acetic acid]	111%	< 0.1 µM	
O=C(O)Cc1ccc2c(c1)CCN2c1nc(-c2ccc(F)s2)nc2c1CS(=O)(=O)C2 [Compound No. 1-25, 2-(1-(2-(5-Fluoro-thiophen-2-yl)-6,6-dioxo-5,7-dihydro-thieno[3,4-d]pyrimidin-4-yl)-2,3-dihydro-1H-indol-5-yl)acetic acid]	103%	< 0.1 µM	
COc1ccc(-c2nc3c(c(-n4ncc5cc(CC(=O)O)ccc54)n2)CCC3)cc1Cl [Compound No. 1-59, 2-(1-(2-(3-Chloro-4-methoxyphenyl)-6,7-dihydro-5H-cyclopenta[d]-pyrimidin-4-yl)-1H-indazol-5-yl)acetic acid]	38%		
COc1ccc(-c2nc3c(c(-n4ncc5cc(CC(=O)O)ccc54)n2)CCC3)cc1F [Compound No. 1-60, 2-(1-(2-(3-Fluoro-4-methoxyphenyl)-6,7-dihydro-5H-cyclopenta[d]-pyrimidin-4-yl)-1H-indazol-5-yl)acetic acid]	67%	0.1 to 1 µM	
O=C(O)Cc1ccc2c(cnn2-c2nc(-c3ccc(Cl)s3)nc3c2CCC3)c1 [Compound No. 1-61, 2-(1-(2-(5-Chlorothiophen-2-yl)-6,7-dihydro-5H-cyclopenta[d]-pyrimidin-4-yl)-1H-indazol-5-yl)acetic acid]	82%	0.1 to 1 µM	
O=C(O)Cc1ccc2c(c1)CC(=O)N2c1nc(-c2ccc(Cl)s2)nc2c1CCC2 [Compound No. 1-64, 2-(1-(2-(5-Chlorothiophen-2-yl)-6,7-dihydro-5H-cyclopenta[d]-pyrimidin-4-yl)-2-oxoindolin-5-yl)acetic acid]	28%		
O=C(O)Cc1ccc2c(c1)CC(=O)N2c1nc(-c2ccc(F)s2)nc2c1CCC2 [Compound No. 1-65, 2-(1-(2-(5-Fluorothiophen-2-yl)-6,7-dihydro-5H-cyclopenta[d]-pyrimidin-4-yl)-2-oxoindolin-5-yl)acetic acid]	34%		

The remaining lines, values ahead:

inhibition at 1 µM	IC50	Inhibition at 1 μM test concentration [%]	Compound
102%	< 0.1 µM		COc1ccc(-c2nc3c(c(N4CCc5cc(CC(=O)O)ccc54)n2)CCC3)cc1F [Compound No. 1-1, 2-(1-(2-(3-Fluoro-4-methoxyphenyl)-6,7-dihydro-5H-cyclopenta[d]-pyrimidin-4-yl)indolin-5-yl)acetic acid]
91%	< 0.1 µM		COc1ccc(-c2nc3c(c(N4CCc5cc(CC(=O)O)ccc54)n2)CCC3)cc1Cl [Compound No. 1-2, 2-(1-(2-(3-Chloro-4-methoxyphenyl)-6,7-dihydro-5H-cyclopenta[d]-pyrimidin-4-yl)indolin-5-yl)acetic acid]
83%	< 0.1 µM		COc1ccc(-c2nc3c(c(N4CCc5cc(CC(=O)O)ccc54)n2)CCC3)cc1 [Compound No. 1-3, 2-(1-(2-(4-Methoxyphenyl)-6,7-dihydro-5H-cyclopenta[d]pyrimidin-4-yl)indolin-5-yl)acetic acid]
98%	< 0.1 µM		COc1ccc(-c2nc3c(c(N4CCc5cc(CC(=O)O)ccc54)n2)CSC3)cc1Cl [Compound No. 1-5, 2-(1-(2-(3-Chloro-4-methoxyphenyl)-5,7-dihydrothieno[3,4-d]pyrimidin-4-yl)indolin-5-yl)acetic acid]
78%	< 0.1 µM		O=C(O)Cc1ccc2c(c1)CCN2c1nc(-c2ccc(Cl)s2)nc2c1CCC2 [Compound No. 1-13, 2-(1-(2-(5-Chlorothiophen-2-yl)-6,7-dihydro-5H-cyclopenta[d]-pyrimidin-4-yl)indolin-5-yl)acetic acid]
100%	< 0.1 µM		O=C(O)Cc1ccc2c(c1)CCN2c1nc(-c2ccc(F)s2)nc2c1CCC2 [Compound No. 1-15, 2-(1-(2-(5-Fluorothiophen-2-yl)-6,7-dihydro-5H-cyclopenta[d]pyrimidin-4-yl)indolin-5-yl)acetic acid]
95%	< 0.1 µM		N#Cc1ccc(-c2nc3c(c(N4CCc5cc(CC(=O)O)ccc54)n2)CCC3)s1 [Compound No. 1-16, 2-(1-(2-(5-Cyanothiophen-2-yl)-6,7-dihydro-5H-cyclopenta[d]pyrimidin-4-yl)indolin-5-yl)acetic acid]
83%	0.1 to 1 µM		O=C(O)Cc1ccc2c(c1)CCN2c1nc(-c2cncs2)nc2c1CCC2 [Compound No. 1-17, 2-(1-(2-(Thiazol-5-yl)-6,7-dihydro-5H-cyclopenta[d]pyrimidin-4-yl)indolin-5-yl)acetic acid]
92%	< 0.1 µM		O=C(O)Cc1ccc2c(c1)CCN2c1nc(-c2cc(Cl)cs2)nc2c1CCC2 [Compound No. 1-18, 2-(1-(2-(4-Chlorothiophen-2-yl)-6,7-dihydro-5H-cyclopenta[d]pyrimidin-4-yl)indolin-5-yl)acetic acid]
85%	< 0.1 µM		O=C(O)Cc1ccc2c(c1)CCN2c1nc(-c2csc(Cl)c2)nc2c1CCC2 [Compound No. 1-19, 2-(1-(2-(5-Chlorothiophen-3-yl)-6,7-dihydro-5H-cyclopenta[d]pyrimidin-4-yl)indolin-5-yl)acetic acid]
92%	< 0.1 µM		O=C(O)Cc1ccc2c(c1)CCN2c1nc(-c2ccc(Cl)s2)nc2c1CSC2 [Compound No. 1-20, 2-(1-(2-(5-Chlorothiophen-2-yl)-5,7-dihydrothieno[3,4-d]pyrimidin-4-yl)indolin-5-yl)acetic acid]
		88%	O=C(O)Cc1ccc2c(c1)CCN2c1nc(-c2ccc(Cl)s2)nc2c1C[S+]([O-])C2 (stereo not shown) [Compound No. 1-21, 2-(1-(2-(5-Chlor-thiophen-2-yl)-6-oxo-5,7-dihydro-thieno[3,4-d]pyrimidin-4-yl)-2,3-dihydro-1H-indol-5-yl)acetic acid]
63%	0.1 to 1 µM		COc1ccc(-c2nc3c(c(N4CCc5cc(CC(=O)O)ccc54)n2)CCCC3)cc1Cl [Compound No. 1-39, 2-(1-(2-(3-Chloro-4-methoxyphenyl)-5,6,7,8-tetrahydroqiuinazolin-4-yl)indolin-5-yl)acetic acid]
76%	0.1 to 1 µM		O=C(O)Cc1ccc2c(c1)CCN2c1nc(-c2ccc(Cl)s2)nc2c1CCCC2 [Compound No. 1-50, 2-(1-(2-(5-Chlorothiophen-2-yl)-5,6,7,8-tetrahydroquinazolin-4-yl)indolin-5-yl)acetic acid]

Source: patent publication US9527832B2, “Substituted condensed pyrimidine compounds” (GRÜNENTHAL GMBH, priority 2013, dated 2016)
